The results in this text go back to ChEMBL document CHEMBL1201862, “PubChem BioAssay data set” (2004).

The target in experiment [1] is T1, Sentrin-specific protease 8 (Homo sapiens, UniProt Q96LD8).
T1 sequence (Q96LD8 whole entry): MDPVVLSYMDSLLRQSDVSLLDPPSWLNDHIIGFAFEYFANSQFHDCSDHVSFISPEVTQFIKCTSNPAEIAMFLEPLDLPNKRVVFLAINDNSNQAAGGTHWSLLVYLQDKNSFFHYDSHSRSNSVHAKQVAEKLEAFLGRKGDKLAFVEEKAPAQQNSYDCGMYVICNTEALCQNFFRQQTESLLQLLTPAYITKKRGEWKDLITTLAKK
Format: functional.

Experiment [2] deals with T2, Protein RecA (Mycobacterium tuberculosis, UniProt P9WHJ3).
T2 sequence (P9WHJ3 whole entry): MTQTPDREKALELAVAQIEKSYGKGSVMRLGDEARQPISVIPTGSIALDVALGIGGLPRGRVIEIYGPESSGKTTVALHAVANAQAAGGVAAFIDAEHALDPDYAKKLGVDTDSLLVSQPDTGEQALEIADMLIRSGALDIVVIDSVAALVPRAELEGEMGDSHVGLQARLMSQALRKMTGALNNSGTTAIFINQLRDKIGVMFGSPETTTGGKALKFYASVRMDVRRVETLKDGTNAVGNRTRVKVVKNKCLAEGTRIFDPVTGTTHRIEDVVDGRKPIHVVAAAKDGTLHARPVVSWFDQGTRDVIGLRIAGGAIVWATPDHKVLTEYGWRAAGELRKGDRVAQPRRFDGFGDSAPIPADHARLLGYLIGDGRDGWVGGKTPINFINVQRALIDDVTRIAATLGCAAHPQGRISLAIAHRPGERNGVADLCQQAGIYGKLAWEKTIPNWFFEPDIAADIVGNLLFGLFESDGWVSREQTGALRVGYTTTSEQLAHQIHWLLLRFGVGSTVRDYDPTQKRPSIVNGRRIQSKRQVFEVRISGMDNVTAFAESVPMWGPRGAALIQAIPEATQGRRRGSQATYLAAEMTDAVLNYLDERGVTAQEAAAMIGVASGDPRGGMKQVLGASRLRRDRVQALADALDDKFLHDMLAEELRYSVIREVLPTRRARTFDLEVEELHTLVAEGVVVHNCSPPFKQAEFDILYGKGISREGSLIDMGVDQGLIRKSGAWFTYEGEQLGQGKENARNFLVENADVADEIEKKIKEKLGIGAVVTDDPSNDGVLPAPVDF
Kind of experiment: Fluorescence Cell-Free Homogeneous Dose Retest to Identify Inhibitors of RecA-Intein Splicing Activity. [Related pubchem assays (depositor defined):AID2097, AID2223, AID489010, AID492950]. It counts as functional.

For experiment [3], the target named is T3, Replicative DNA helicase DnaB (Mycobacterium tuberculosis, UniProt P9WMR3).
T3 sequence (P9WMR3 whole entry): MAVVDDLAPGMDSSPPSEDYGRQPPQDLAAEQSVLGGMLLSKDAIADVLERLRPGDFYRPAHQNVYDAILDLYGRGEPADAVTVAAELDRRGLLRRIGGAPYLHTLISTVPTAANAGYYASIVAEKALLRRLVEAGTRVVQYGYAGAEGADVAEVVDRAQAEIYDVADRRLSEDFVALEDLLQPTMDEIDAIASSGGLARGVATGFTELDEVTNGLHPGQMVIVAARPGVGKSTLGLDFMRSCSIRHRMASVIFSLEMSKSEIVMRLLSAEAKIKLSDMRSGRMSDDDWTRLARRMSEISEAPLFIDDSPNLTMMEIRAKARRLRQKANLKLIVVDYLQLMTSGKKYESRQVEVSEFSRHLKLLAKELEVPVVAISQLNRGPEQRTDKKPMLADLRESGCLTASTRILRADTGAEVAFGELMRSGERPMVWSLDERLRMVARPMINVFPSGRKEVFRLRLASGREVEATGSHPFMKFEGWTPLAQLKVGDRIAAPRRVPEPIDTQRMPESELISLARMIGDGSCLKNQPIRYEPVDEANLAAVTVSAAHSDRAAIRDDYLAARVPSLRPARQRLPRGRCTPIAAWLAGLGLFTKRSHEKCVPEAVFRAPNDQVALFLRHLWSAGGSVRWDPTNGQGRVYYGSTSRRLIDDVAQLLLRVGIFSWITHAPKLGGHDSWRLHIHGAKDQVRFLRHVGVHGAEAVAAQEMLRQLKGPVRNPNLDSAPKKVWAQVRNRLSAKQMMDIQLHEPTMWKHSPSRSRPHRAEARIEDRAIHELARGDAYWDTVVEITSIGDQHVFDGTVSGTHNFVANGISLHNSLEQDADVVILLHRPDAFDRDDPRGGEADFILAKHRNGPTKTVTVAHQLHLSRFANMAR
Kind of experiment: DnaB intein splicing inhibitors, dose response, biochemical, cell-free fluorescence (AID 449749). It counts as functional.

Experiment [4] concerns the target T1, Sentrin-specific protease 8. It counts as functional. This is another data set of the same source.
A short description of experiment [5]: growth suppression of PTEN-null colon cells, dose response, cell-based, HCT116 PTEN knockout (AID 1047).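 Note: HCT116 colon tumor cells with PTEN knocked out; cells exposed to compound for 60 hours before readout; potency for loss of cell viability measured by luminescence.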 Format: functional.
Experiment [6] in a line: growth suppression of beta-catenin-knockout colon cells, dose response, cell-based, HCT116, human colon tumor (AID 1045).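 Note: HCT116 colon tumor cells with beta catenin knocked out; cells exposed to compound for 60 hours.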 It counts as functional.
In experiment [7] the target is T4, DNA repair and recombination protein RAD54-like (Homo sapiens, UniProt Q92698).
T4 sequence (Q92698 whole entry): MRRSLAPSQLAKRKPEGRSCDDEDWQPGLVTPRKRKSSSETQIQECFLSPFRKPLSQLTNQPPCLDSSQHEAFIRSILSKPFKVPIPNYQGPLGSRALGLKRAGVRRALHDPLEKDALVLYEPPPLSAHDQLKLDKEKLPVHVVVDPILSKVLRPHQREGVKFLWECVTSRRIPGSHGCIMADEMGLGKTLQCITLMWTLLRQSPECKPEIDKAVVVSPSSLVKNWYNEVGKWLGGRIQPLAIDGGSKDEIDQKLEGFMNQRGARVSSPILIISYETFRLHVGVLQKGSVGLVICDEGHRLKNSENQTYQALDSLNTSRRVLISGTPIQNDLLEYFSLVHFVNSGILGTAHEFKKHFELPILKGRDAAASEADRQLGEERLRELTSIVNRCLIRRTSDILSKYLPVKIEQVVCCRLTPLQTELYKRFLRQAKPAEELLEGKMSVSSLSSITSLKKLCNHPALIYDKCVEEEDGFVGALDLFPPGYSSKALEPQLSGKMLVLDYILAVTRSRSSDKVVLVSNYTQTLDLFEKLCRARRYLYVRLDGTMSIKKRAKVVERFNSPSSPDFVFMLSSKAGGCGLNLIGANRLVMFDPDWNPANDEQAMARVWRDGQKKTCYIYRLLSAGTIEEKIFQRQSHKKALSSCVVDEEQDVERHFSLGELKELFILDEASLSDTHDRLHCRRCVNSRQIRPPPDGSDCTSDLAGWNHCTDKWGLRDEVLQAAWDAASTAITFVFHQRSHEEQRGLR
Kind of experiment: inhibitors of human RAD54 branch migration, confirmation, biochemical, fluorescence, cherry-picked samples, dose series (AID 651657). It counts as functional.

Experiment [8] is described as follows: A549 cell cytotoxicity, dose response, cytotoxicity control, plate reader, cherry-pick, antagonist series (AID 743412). Format: functional, cell-based.
Experiment [9] is described as follows: HepG2 cell cytotoxicity, dose response, cytotoxicity control, plate reader, cherry-pick, antagonist series (AID 743416). It counts as functional, cell-based.
Experiment [10] is described as follows: HEK293 cell cytotoxicity, dose response, cytotoxicity control, plate reader, cherry-picked samples (AID 743446). It counts as functional, cell-based.
Experiment [11] concerns the target T5, Protein skinhead-1 (Caenorhabditis elegans, UniProt P34707).
T5 sequence (P34707 whole entry): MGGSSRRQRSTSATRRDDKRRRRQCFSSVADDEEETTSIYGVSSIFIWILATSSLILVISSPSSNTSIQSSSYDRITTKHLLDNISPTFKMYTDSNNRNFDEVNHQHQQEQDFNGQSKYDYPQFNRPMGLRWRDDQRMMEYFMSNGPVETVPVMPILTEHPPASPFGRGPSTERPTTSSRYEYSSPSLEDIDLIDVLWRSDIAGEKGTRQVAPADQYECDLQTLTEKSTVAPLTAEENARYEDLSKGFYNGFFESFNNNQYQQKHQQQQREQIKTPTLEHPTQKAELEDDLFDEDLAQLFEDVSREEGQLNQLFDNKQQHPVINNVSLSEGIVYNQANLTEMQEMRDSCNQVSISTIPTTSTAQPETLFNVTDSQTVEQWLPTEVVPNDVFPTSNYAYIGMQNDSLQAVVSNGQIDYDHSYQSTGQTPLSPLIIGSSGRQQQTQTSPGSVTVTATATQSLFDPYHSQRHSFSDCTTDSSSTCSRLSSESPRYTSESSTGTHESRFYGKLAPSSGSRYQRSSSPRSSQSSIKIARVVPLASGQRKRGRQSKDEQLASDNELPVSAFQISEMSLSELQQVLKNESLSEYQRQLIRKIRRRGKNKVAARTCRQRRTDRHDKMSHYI
It counts as functional.

Experiment [12] deals with T6, Microphthalmia-associated transcription factor (Homo sapiens, UniProt O75030).
T6 sequence (O75030 whole entry): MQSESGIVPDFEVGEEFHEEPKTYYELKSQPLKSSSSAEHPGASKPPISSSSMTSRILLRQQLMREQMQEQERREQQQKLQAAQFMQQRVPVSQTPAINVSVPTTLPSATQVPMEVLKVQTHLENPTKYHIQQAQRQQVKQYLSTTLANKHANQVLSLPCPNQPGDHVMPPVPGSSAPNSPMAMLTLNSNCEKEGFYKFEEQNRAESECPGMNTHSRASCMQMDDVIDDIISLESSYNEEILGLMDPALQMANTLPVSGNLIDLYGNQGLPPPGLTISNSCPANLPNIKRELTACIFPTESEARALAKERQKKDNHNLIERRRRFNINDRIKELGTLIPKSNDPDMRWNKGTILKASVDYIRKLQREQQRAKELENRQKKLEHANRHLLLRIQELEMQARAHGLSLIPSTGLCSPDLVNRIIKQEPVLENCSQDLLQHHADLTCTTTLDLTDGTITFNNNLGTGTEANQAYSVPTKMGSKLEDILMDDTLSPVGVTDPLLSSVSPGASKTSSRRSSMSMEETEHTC
Kind of experiment: TRPM1 promoter luciferase signal decrease, dose response, MITF inhibitor project, cell-based, SK-MEL-5, cherry-picked, set 3 (AID 493073).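 Note: SK-MEL-5 melanoma cells with luciferase driven by the MITF target TRPM1 promoter.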 It counts as functional.

A short description of experiment [13]: LGR2 antagonists, dose response, cell-based, HEK293, CRE-luciferase reporter, cherry pick, set 2 (AID 743343).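 Note: transfected cells were stimulated with diluted bursicon conditioned medium after compound addition.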 Format: functional. (In general: In a reporter assay the amount or activity of a reporter protein is the signal.)
The nature of experiment [14]: MC4R antagonists, dose response, counter-screen for LGR2 antagonist project, cell-based, plate reader, cherry pick (AID 743444).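 Note: transfected HEK 293 cells stimulated with alpha-MSH peptide; potency of inhibitors of the alpha-MSH evoked signal.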 It counts as functional. A general note: The purpose of a counterscreen is to sort out artefacts and off-target activity.

Structures are written as SMILES. Active and inactive are the calls of the source.

For orientation: IC50 means the concentration that inhibits the measured activity by half. As a reminder, the EC50 is the concentration that produces a half-maximal response. One may read the AC50 as the midpoint of the concentration-response curve, whichever way the signal moves. On to `Cc1n[nH]c(O)c1C(c1cc(Br)ccc1O)c1c(C)n[nH]c1O`, for which the IC50 in [1] was 23 µM (active); in experiment [4], 34 µM (active). In [2], the EC50 was 0.275 µM (active). The AC50 in [3] was 0.347 µM (active).
Turning to `CCN(CC)CCCNc1nc2cc(OC)c(OC)cc2c2nc(-c3cccnc3)nn12`, the EC50 in [5] is 8.62 µM (active); in [6], 7.33 µM (active). Further, in [7], the AC50 is 2.15 µM (active).
In the case of `COC/C=C/C1=CC2=CC(=O)C(C)(OC(=O)c3cnc4ccccc4n3)C(=O)C2=CN1CCCCO` (centres undefined), the results for the IC50 in experiment [1] and in experiment [4] were 17.6 µM (active) and 6.81 µM (active), respectively.
Take `CCN(CC)CCn1c2ccc(F)cc2c2nc(C)sc21`: the AC50 in [7] was 20.9 µM (active).
Take `O=[N+]([O-])c1ccc(C=NN2CCOCC2)s1`: the figures for the IC50 in [1] and in experiment [4] were 31.9 µM (active) and 49 µM (active), respectively.
Turning to `CC1(OC(=O)CCc2ccccc2)C(=O)C=C2C=C3CCCN3C=C2C1=O` (centres undefined), the IC50 was 18.1 µM (active) in [1] and 12.1 µM (active) in experiment [4].
As for `C[C@@H]1CN([C@H](C)CO)C(=O)Cc2cc(NC(=O)CCC(F)(F)F)ccc2O[C@@H]1CN(C)CC1CCCCC1`, the AC50 in experiment [8] was 47.9 µM (active); in experiment [9], > 52 µM (inactive); in [10] it was > 52 µM (inactive).
Take `COC(=O)CCCC1=CC2=CC(=O)C(C)(OC(=O)c3cccs3)C(=O)C2=CN1CC(C)C` (centres undefined): the figures for the IC50 in [11], in [1] and in experiment [4] were > 100 µM (inactive), 11.1 µM (active) and 7.62 µM (active), respectively.
For `Cn1c(=O)c([N+](=O)[O-])c(-n2ccnc2)c2ccccc21`, the EC50 in experiment [2] was 6.43 µM (active). In addition, the AC50 in experiment [12] was 6.6 µM (active); in experiment [3] it was 6.67 µM (active).
Regarding `Cn1c2ccc(F)cc2c2ncn(CCCN(CCO)CCO)c(=O)c21`, the AC50 in experiment [7] is 28 µM (active).
Consider `C[C@@H]1CN([C@H](C)CO)C(=O)c2cccc(NC(=O)Nc3ccc(C(F)(F)F)cc3)c2O[C@@H]1CN(C)CC1CCCCC1`, for which the AC50 is 7.8 µM (active) in experiment [8]; 9.17 µM (active) in experiment [9]; 21.7 µM (active) in experiment [13]; 7.5 µM (active) in [14]; 14 µM (active) in [10].
